From patent US11446283B2, “Methods and dosing regimens using ibudilast and a second agent for cancer therapy” (MediciNova, Inc., priority 2018, dated 2022)

Tests used:
[1] = system: Patient-derived cell line RN1 (MGMT unmethylated GBM); assay: Efficacy in balb/c nude mice harboring intracranial patient-derived glioblastoma (RN1), Kaplan-Meier survival; settings: for survival rate: at 105 days, control 0%; for median survival time: gavage daily; for mice that survived longer than the longest surviving mouse in the control group: n=8
Description: Patient-derived cell line RN1 (2 μL) was intra-cranially injected into balb/c nude mice.
6-8 week old balb/c nude mice were used. All procedures, except autopsies, were carried out within a laminar flow cabinet. Tumors were induced following the procedure disclosed in Wakimoto H. et al. (2012) Neuro Oncol. 14(2): 132-44. Balb/c nude mice were weighed and held in groups of four. The mice received an analgesic 2 hours prior to primary human tumor cell implantation—the mice were injected subcutaneously with 5 mg/kg Rimadyl (Carprofen). The animals were anesthetized via continuous mask inhalation of isoflurane (2.5-3%, 1 L/min oxygen for induction and 1-2.5%, 0.2 L/min oxygen for maintenance). The depth of anesthesia was assessed by toe pinch reflex (leg withdrawal) before the procedure began (cf. monitoring sheet #1).
A 2 mm drill hole was made at the stereotactically in the right caudate putamen using the coordinates 1 mm anterior, 1.5 mm lateral, and 3.0 mm below the bregma. A micro-injector unit (holding a 2 μl Hamilton syringe with a 25-gauge needle) connected to the manipulating arm of the stereotactic device was used to inject a 2 μL solution containing 200,000 primary human tumor cells dorsoventrally (DV) at −3 from the skull surface, to deposit cells into the lateral portion of the striatum (right basal ganglia). All injections were made over a period of 10 minutes to ensure optimal parenchymal compliance. The micro-injector needle was retracted and the burr hole in the skull closed using bone-wax (Johnson & Johnson) in order to prevent extracranial tumor growth. Skin was closed using a tissue adhesive (Vetbond). Mice received sterile eye drops (Systane) throughout the procedure to avoid eye dryness.
Two dosages of ibudilast were administered to the balb/c nude mice: 5 mg/kg and 20 mg/kg (both in 100 uL total volume). The dosage of ibudilast was extrapolated from multiple animal studies on rats looking at the treatment of multiple sclerosis (MS) disease and models of central neuropathic pain (Ellis et al. 2014; Reagan-shaw et al. 2008).
10 mg/kg of temozolomide (TMZ) was administered to the balb/c nude mice through intraperitoneal injection.
Five treatment groups were used as follows: • 1. Ibudilast 5 mg/kg by gavage (n=8) • 2. Ibudilast: 20 mg/kg by gavage (n=8) • 3. Combination 1: Ibudilast (5 mg/kg)+TMZ (10 mg/kg) (n=8) • 4. Combination 2: Ibudilast (20 mg/kg)+TMZ (10 mg/kg) (n=8) • 5. Control saline containing polyoxyethylene hydrogenated castor oil 60; 100 μL) (n=8)
For all of the treatment groups (except the control group), ibudilast was administered by gavage (daily) for approximately 59 days (until the last control mouse died) and TMZ was administered via intraperitoneal injection (daily) for two weeks.
At approximately 43 days after tumor implantation, mice were treated with temozolomide (10 mg/kg) and/or ibudilast (5 mg/kg or 20 mg/kg). Ibudilast was administered in a solution of saline containing polyoxyethylene hydrogenated castor oil 60 using the gavage method (100 μl total volume) (Fujimoto et al., 1999 J Neuroimmunology 95:1-2, 35-42). Temozolomide was delivered by intraperitoneal injection (I.P.) in 0.1% dimethyl sulfoxide (DMSO, […] total volume).
At this particular time, animals were carefully monitored (twice daily) as neurological decline can occur rapidly. Typical signs of neurological decline include a hunched posture with an arched back, continuous circling, walking on tip-toes, balance issues, closed eyes, hyperactivity, and seizures. Neurological decline was scored (cf. monitoring sheet #3) for each animal.
When signs of pain, distress or neurological decline were noted, animals were immediately euthanized by inhalation of a progressive overdose of carbon dioxide (cf. B.7). Animals were also immediately euthanized if they lost more than 20% of their body weight.

[2] = in vivo; cited from earlier work

Structure (SMILES)	median survival ([1]; TMZ 10 mg/kg intraperitoneal daily for two weeks, control 100.5 days) [days]	effect in the mouse glioblastoma model ([1]; 5 and 20 mg/kg)	survival rate ([1]; ibudilast 5 mg/kg) [%]	survival rate ([1]; ibudilast 20 mg/kg) [%]	median survival time ([1]; ibudilast 5 mg/kg (low dose) monotherapy, control 100.5 days) [days]	mice that survived longer than the longest surviving mouse in the control group ([1]; ibudilast 5 mg/kg)	median survival time ([1]; ibudilast 20 mg/kg (high dose) monotherapy, control 100.5 days) [days]	mice that survived longer than the longest surviving mouse in the control group ([1]; ibudilast 20 mg/kg)	median survival compared with controls (significance) ([1]; monotherapy at either low dose (5 mg/kg) or high dose (20 mg/kg))	CNS penetration [2]
Cn1nnc2c(C(N)=O)ncn2c1=O [TMZ, temozolomide]	105.5									
CC(C)C(=O)c1c(C(C)C)nn2ccccc12 [ibudilast, 3-isobutyryl-2-isopropylpyrazolo[1,5-a]pyridine]		positive effect	12	25	89	one mouse	97.5	two mice	did not significantly differ from the controls	good CNS penetration
COc1ccc(C2CNC(=O)C2)cc1OC1CCCC1 (centres unmarked) [rolipram]										poor penetration
